Key:
stromelysin (MMP-3) = biological target: T1, stromelysin (MMP-3) (Homo sapiens, UniProt P08254); assay: Enzyme inhibition of the catalytic domain of human stromelysin (fluorogenic substrate); format: biochemical; details: 15 min preincubation, pH=6.5, fluorescence 328 nm (ex)/393 nm (em)
T1 construct: enzymatic activity of the catalytic domains of human stromelysin and of neutrophil collagenase; made in house
Protocol: (§1) Preparation and determination of the enzymatic activity of the catalytic domains of human stromelysin and of neutrophil collagenase.
(§2) The enzymes stromelysin (MMP-3) and neutrophil collagenase (MMP-8) were prepared according to Ye et al. (Biochemistry; 31 (1992) pages 11231-11235). To measure the enzyme activity or the enzyme inhibitor action, 70 μl of buffer solution and 10 μl of enzyme solution are incubated for 15 min with 10 μl of a 10% strength (v/v) aqueous dimethyl sulfoxide solution, which optionally contains the enzyme inhibitor. After addition of 10 μl of a 10% strength (v/v) aqueous dimethyl sulfoxide solution which contains 1 mil/L of the substrates, the enzyme reaction is monitored by fluorescence spectroscopy (328 nm (ex)/393 nm(em)). The enzyme activity is shown as the extinction increase/min. The IC50 values listed in Table 2 are determined as those inhibitor concentrations which in each case lead to a 50% inhibition of the enzyme.
(§3) The buffer solution contains 0.05% Brij (Sigma, Deisenhofen, Germany) and also 0.1 mol/L tris/HCl, 0.1 mol/L NaCl, 0.01 mol/L CaCl2 and 0.1 mol/L piperazine-N,N′-bis(2-ethanesulfonic acid) (pH=6.5). The enzyme solution contains 5 μg/ml of one of the enzyme domains prepared according to Ye et al. The substrate solution contains 1 mil/L of the fluorogenic substrate (7-methoxycoumarin-4-yl)acetyl-Pro-Leu-Gly-Leu-3-(2′,4′-dinitrophenyl)-L-2,3-diaminopropionyl-Ala-Arg-NH2 (Bachem, Heidelberg, Germany).

[1] = biological target: T2, neutrophil collagenase (MMP-8) (Homo sapiens, UniProt P22894); assay: Enzyme inhibition of the catalytic domain of neutrophil collagenase (fluorogenic substrate); format: biochemical; details: 15 min preincubation, pH=6.5, fluorescence 328 nm (ex)/393 nm (em)
T2 construct: enzymatic activity of the catalytic domains of human stromelysin and of neutrophil collagenase; made in house
Protocol: as §1, §2, §3

T2 sequence (P22894 100-262 limits assumed): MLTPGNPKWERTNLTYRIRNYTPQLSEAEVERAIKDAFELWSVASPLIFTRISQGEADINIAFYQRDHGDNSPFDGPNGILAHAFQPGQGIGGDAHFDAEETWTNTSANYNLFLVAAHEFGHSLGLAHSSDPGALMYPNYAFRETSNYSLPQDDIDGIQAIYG
T1 sequence (P08254 100-272 limits assumed): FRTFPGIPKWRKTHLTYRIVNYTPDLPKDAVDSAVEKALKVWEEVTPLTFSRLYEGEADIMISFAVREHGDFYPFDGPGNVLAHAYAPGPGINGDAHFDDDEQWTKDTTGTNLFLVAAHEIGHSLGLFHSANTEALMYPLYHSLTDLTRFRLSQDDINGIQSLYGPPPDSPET

Structure (SMILES) | melting point [°C] | IC50 (stromelysin (MMP-3)) [nM] | IC50 [1] [nM]
O=C(O)C(CCN1C(=O)c2ccccc2C1=O)NS(=O)(=O)c1ccc(-c2ccccc2)cc1 (racemic) [Example 27] | 176 |  | 
Cc1cc(C)nc(NCCC[C@H](NS(=O)(=O)c2ccc(-c3ccccc3)cc2)C(=O)O)n1 [Example 169] | 226 to 227 |  | 
O=C(O)[C@@H](CCCN1C(=O)c2ccccc2C1=O)NS(=O)(=O)c1ccc(-c2ccc(Cl)cc2)cc1 [Example 6, 2-(2R)-(4-Chlorobiphenylsulfonylamino)-5-phthalimidoyl-pentanoic acid] | 178 | 5 | 2
O=C(O)[C@H](CCCN1Cc2ccccc2C1=O)NS(=O)(=O)c1ccc(Oc2ccc(Cl)cc2)cc1 [Example 68] | 223 to 225 |  | 
O=C(O)[C@H](CCCN1C(=O)c2ccccc2C1=O)NS(=O)(=O)c1ccc(-c2ccc(Cl)cc2)cc1 [Example 32] | 179 | 6 | 2
O=C(O)C(CCCN1C(=O)c2ccccc2C1=O)NS(=O)(=O)c1ccc(-c2ccccc2)cc1 (racemic) [Example 30] | 168 | 30 | 5
CC(C)(C)OC(=O)NCCC[C@H](NS(=O)(=O)c1ccc(Oc2ccc(Cl)cc2)cc1)C(=O)O [Example 172] | 131 to 133 |  | 
COC(=O)[C@@H](CCCCNC(=O)OCc1ccccc1)NS(=O)(=O)c1ccc(-c2ccc(Cl)cc2)cc1 [Example 17] | 69 to 70 |  | 
O=C(O)[C@H](CCCN1Cc2ccccc2C1=O)NS(=O)(=O)c1ccc(-c2ccc(Cl)cc2)cc1 [Example 34] | 213 to 215 | 4 | 2
Cc1cc(C)nc(NCCC[C@H](NS(=O)(=O)c2ccc(-c3ccc(Cl)cc3)cc2)C(=O)O)n1 [Example 170] | 177 to 179 | 20 | 10
O=C(O)C(CCCCN1C(=O)c2ccccc2C1=O)NS(=O)(=O)c1ccc(-c2ccccc2)cc1 (racemic) [Example 33] | 181 |  | 
O=C(O)C(CCN1C(=O)c2ccccc2C1=O)NS(=O)(=O)c1ccc(-c2ccc(Cl)cc2)cc1 (racemic) [Example 29] | 238 | 6 | 3
O=C(O)C(CCCN1C(=O)c2ccccc2C1=O)NS(=O)(=O)c1ccc(-c2ccc(Cl)cc2)cc1 (racemic) [Example 31] | 132 | 5 | 2
O=C(O)[C@H](CCN1C(=O)c2ccccc2C1=O)NS(=O)(=O)c1ccc(-c2ccccc2)cc1 [Example 28] | 167 | 40 | 6
O=C(NCCC[C@H](NS(=O)(=O)c1ccc(-c2ccc(Cl)cc2)cc1)C(=O)O)c1ccccc1F [Example 88] |  | 10 | 3
O=C(O)[C@H](CCCNC(=O)N1CCCC1)NS(=O)(=O)c1ccc(-c2ccc(Cl)cc2)cc1 [Example 143] |  | 5 | 2
O=C(Cc1cccs1)NCCC[C@H](NS(=O)(=O)c1ccc(-c2ccc(Cl)cc2)cc1)C(=O)O [Example 111] |  | 10 | 3
Cc1ccc(S(=O)(=O)NC(=N)NCCC[C@H](NS(=O)(=O)c2ccc(-c3ccc(Cl)cc3)cc2)C(=O)O)cc1 [Example 21] |  | 70 | 20
Cc1ccc(C(=O)NCCC[C@H](NS(=O)(=O)c2ccc(-c3ccc(Cl)cc3)cc2)C(=O)O)s1 [Example 120] |  | 20 | 4
N/C(=N\[N+](=O)[O-])NCCC[C@@H](NS(=O)(=O)c1ccc(-c2ccc(Cl)cc2)cc1)C(=O)O [Example 26] |  | 60 | 7

Structure (SMILES) | melting point [°C] | IC50 (stromelysin (MMP-3)) [nM] | IC50 [1] [nM]
CC(=O)NCSC[C@@H](NS(=O)(=O)c1ccc(-c2ccc(Cl)cc2)cc1)C(=O)O [Example 18] |  | 70 | 10
O=C(NCCC[C@H](NS(=O)(=O)c1ccc(-c2ccccc2)cc1)C(=O)O)C1CC1 [Example 161] |  | 40 | 4
CC(=O)Oc1ccccc1C(=O)NCCC[C@H](NS(=O)(=O)c1ccc(-c2ccccc2)cc1)C(=O)O [Example 44] |  | 30 | 6
O=C(CC(C(=O)O)c1ccccc1)NCCC[C@@H](NS(=O)(=O)c1ccc(-c2ccc(Cl)cc2)cc1)C(=O)O (single isomer, unassigned) [Example 39] |  | 20 | 30
Nc1ccc(C(=O)NCCC[C@H](NS(=O)(=O)c2ccc(-c3ccc(Cl)cc3)cc2)C(=O)O)cc1 [Example 107] |  | 10 | 4
N/C(=N\[N+](=O)[O-])NCCC[C@H](NS(=O)(=O)c1ccc(-c2ccc(Cl)cc2)cc1)C(=O)O [Example 25] |  | 60 | 10
O=C(NCCC[C@@H](NS(=O)(=O)c1ccc(-c2ccc(Cl)cc2)cc1)C(=O)O)c1ccc2c(c1)OCO2 [Example 48] |  | 20 | 7
Cn1cccc1C(=O)NCCC[C@H](NS(=O)(=O)c1ccc(-c2ccc(Cl)cc2)cc1)C(=O)O [Example 154] |  | 30 | 9
CC(=O)NCCCC[C@@H](NS(=O)(=O)CCc1ccc(-c2ccccc2)cc1)C(=O)O [Example 9, R-(4-Biphenylethylsulfonyl)-N-epsilon-acetyl-Lys-OH] |  | 60 | 70
Cc1ccsc1C(=O)NCCC[C@H](NS(=O)(=O)c1ccc(-c2ccc(Cl)cc2)cc1)C(=O)O [Example 100] |  | 4 | 2
CC(C)(C)OC(=O)NCCC[C@H](NS(=O)(=O)c1ccc(-c2ccc(Cl)cc2)cc1)C(=O)O [Example 14] |  | 5 | 3
O=C(NCCC[C@H](NS(=O)(=O)c1ccc(-c2ccc(Cl)cc2)cc1)C(=O)O)c1ccncc1 [Example 127] |  | 20 | 3
O=C(NCCC[C@H](NS(=O)(=O)c1ccc(-c2ccc(Cl)cc2)cc1)C(=O)O)c1ccc(C(F)(F)F)cc1 [Example 72] |  | 20 | 6
O=C(CC[C@H](C(=O)O)c1ccccc1)NCCC[C@H](NS(=O)(=O)c1ccc(-c2ccc(Cl)cc2)cc1)C(=O)O [Example 79] |  | 5 | 2
CN(C)c1ccc(C(=O)NCCC[C@@H](NS(=O)(=O)c2ccc(-c3ccc(Cl)cc3)cc2)C(=O)O)cc1 [Example 43] |  | 40 | 20
O=C(/C=C/c1ccc(F)cc1)NCCC[C@H](NS(=O)(=O)c1ccc(-c2ccc(Cl)cc2)cc1)C(=O)O [Example 131] |  | 20 | 5
COc1ccc(C(=O)NCCC[C@H](NS(=O)(=O)c2ccc(-c3ccc(Cl)cc3)cc2)C(=O)O)c(OC)c1 [Example 104] |  | 30 | 8
O=C(NCCC[C@H](NS(=O)(=O)c1ccc(-c2ccc(Cl)cc2)cc1)C(=O)O)c1cccc(Cl)c1 [Example 91] |  | 30 | 5
CN(CCC[C@H](NS(=O)(=O)c1ccc(-c2ccc(Cl)cc2)cc1)C(=O)O)Cc1ccccc1 [Example 145] |  | 10 | 5
O=C(O)[C@H](CCCN(Cc1ccccc1)C(=O)C1CC1)NS(=O)(=O)c1ccc(-c2ccc(Cl)cc2)cc1 [Example 113] |  | 5 | 3

Source: US6355673B1, “Substituted diaminocarboxylic acids” (Aventis Pharma Deutschland GmbH, priority 1997, dated 2002)
